Among the data in patent publication US20250270172A1, “Pyrimidine Derivatives As Modulators of the 5-HT2A Serotonin Receptor Useful For The Treatment of Disorders Related Thereto” (Arena Pharmaceuticals, Inc., priority 2020, published 2025) are Ki values, retold here.

SMILES strings stand for the structures.

For the assay, the target named is 5-HT2A (Homo sapiens (Human), UniProt P28223). In words: Radioligand binding assay, [^3H]5-HT competition, 5-HT2A. The following applies: [^3H]5-HT radioligand, membranes of HEK293 cells expressing recombinant 5-HT2A; Ki from IC50 by Cheng-Prusoff; read-out: 5-HT2A serotonin binding Ki value.
Sequence of 5-HT2A (P28223 whole entry): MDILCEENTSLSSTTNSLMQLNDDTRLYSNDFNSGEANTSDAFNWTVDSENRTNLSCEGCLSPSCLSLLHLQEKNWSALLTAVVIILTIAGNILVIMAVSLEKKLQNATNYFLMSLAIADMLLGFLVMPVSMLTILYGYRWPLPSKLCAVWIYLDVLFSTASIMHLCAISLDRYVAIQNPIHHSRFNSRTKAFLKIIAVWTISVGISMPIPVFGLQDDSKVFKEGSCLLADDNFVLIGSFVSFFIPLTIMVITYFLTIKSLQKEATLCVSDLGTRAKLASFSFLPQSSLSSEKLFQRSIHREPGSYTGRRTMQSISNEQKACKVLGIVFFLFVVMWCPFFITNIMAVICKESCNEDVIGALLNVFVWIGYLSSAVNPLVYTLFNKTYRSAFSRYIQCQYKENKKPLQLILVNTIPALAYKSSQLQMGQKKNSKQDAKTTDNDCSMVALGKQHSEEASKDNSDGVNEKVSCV
The term Ki denotes a dissociation constant, usually derived from enzyme kinetics or from competition with a known ligand. For `Cc1ncnc(C)c1-c1cc(NC(=O)[C@H]2C[C@@H](F)C2)ccc1OCCN1CCCC1` [Compound 302, (1s,3s)-N-(3-(4,6-dimethylpyrimidin-5-yl)-4-(2-(pyrrolidin-1-yl)ethoxy)phenyl)-3-fluorocyclobutane-1-carboxamide], the Ki is 3.18 nM. Turning to `Cc1ncnc(C)c1-c1cc(NC(=O)[C@H]2C[C@H](F)C2)ccc1OCCN1CCCC1` [Compound 303, (1r,3r)-N-(3-(4,6-dimethylpyrimidin-5-yl)-4-(2-(pyrrolidin-1-yl)ethoxy)phenyl)-3-fluorocyclobutane-1-carboxamide], the inhibition constant (Ki) was found to be 9.36 nM. As to `COc1cccc(CC(=O)Nc2ccc(OCCN3CCC3)c(-c3c(C)ncnc3C)c2)c1` [Compound 311, N-(4-(2-(azetidin-1-yl)ethoxy)-3-(4,6-dimethylpyrimidin-5-yl)phenyl)-2-(3-methoxyphenyl)acetamide], the Ki was 3.01 nM.

For `COc1ccc(CC(=O)Nc2ccc(OCCN3CCC3)c(-c3c(C)ncnc3C)c2)cc1` [Compound 313, N-(4-(2-(azetidin-1-yl)ethoxy)-3-(4,6-dimethylpyrimidin-5-yl)phenyl)-2-(4-methoxyphenyl)acetamide], the Ki amounted to 1.7 nM. As to `Cc1ncnc(C)c1-c1cc(NC(=O)Cc2ccc(F)cn2)ccc1OCCN1CCC1` [Compound 315, N-(4-(2-(azetidin-1-yl)ethoxy)-3-(4,6-dimethylpyrimidin-5-yl)phenyl)-2-(5-fluoropyridin-2-yl)acetamide], the Ki came to 12.6 nM.

With `CCOC1CC1C(=O)Nc1ccc(OCCN2CCC2)c(-c2c(C)ncnc2C)c1` (centres unmarked) [Compound 317, N-(4-(2-(azetidin-1-yl)ethoxy)-3-(4,6-dimethylpyrimidin-5-yl)phenyl)-2-ethoxycyclopropane-1-carboxamide], the inhibition constant Ki turned out to be 96.3 nM. `Cc1ncnc(C)c1-c1cc(NC(=O)c2cccc(F)c2)ccc1OCCN1CCC1` [Compound 320, N-(4-(2-(azetidin-1-yl)ethoxy)-3-(4,6-dimethylpyrimidin-5-yl)phenyl)-3-fluorobenzamide]: the Ki stood at 1.77 nM. The figure for `Cc1cccc(C(=O)Nc2ccc(OCCN3CCC3)c(-c3c(C)ncnc3C)c2)c1` [Compound 322, N-(4-(2-(azetidin-1-yl)ethoxy)-3-(4,6-dimethylpyrimidin-5-yl)phenyl)-3-methylbenzamide] is 3.39 nM; for `Cc1ccc(C(=O)Nc2ccc(OCCN3CCC3)c(-c3c(C)ncnc3C)c2)cc1` [Compound 323, N-(4-(2-(azetidin-1-yl)ethoxy)-3-(4,6-dimethylpyrimidin-5-yl)phenyl)-4-methylbenzamide] it is 3.77 nM. Regarding `Cc1ncnc(C)c1-c1cc(NC(=O)c2ccccc2C#N)ccc1OCCN1CCC1` [Compound 324, N-(4-(2-(azetidin-1-yl)ethoxy)-3-(4,6-dimethylpyrimidin-5-yl)phenyl)-2-cyanobenzamide], the Ki amounted to 59700 nM. For the compound `Cc1ncnc(C)c1-c1cc(NC(=O)c2ccc(C#N)cc2)ccc1OCCN1CCC1` [Compound 326, N-(4-(2-(azetidin-1-yl)ethoxy)-3-(4,6-dimethylpyrimidin-5-yl)phenyl)-4-cyanobenzamide], the Ki is 13.7 nM. As to `Cc1cnn(C)c1C(=O)Nc1ccc(OCCN2CCC2)c(-c2c(C)ncnc2C)c1` [Compound 327, N-(4-(2-(azetidin-1-yl)ethoxy)-3-(4,6-dimethylpyrimidin-5-yl)phenyl)-1,4-dimethyl-1H-pyrazole-5-carboxamide], the Ki came out at 15.9 nM. On to `Cc1ncnc(C)c1-c1cc(NC(=O)C2(CF)CC2)ccc1OCCN1CCC1` [Compound 328, N-(4-(2-(azetidin-1-yl)ethoxy)-3-(4,6-dimethylpyrimidin-5-yl)phenyl)-1-(fluoromethyl)cyclopropane-1-carboxamide], for which the Ki turned out to be 13.6 nM. In the case of `Cc1ncnc(C)c1-c1cc(NC(=O)Cc2nccs2)ccc1OCCN1CCC1` [Compound 329, N-(4-(2-(azetidin-1-yl)ethoxy)-3-(4,6-dimethylpyrimidin-5-yl)phenyl)-2-(thiazol-2-yl)acetamide], the inhibitory constant (Ki) worked out at 11.5 nM.
